Our source for the Ki and IC50 values is patent US20050256161A1, “Melanin concentrating hormone receptor antagonists” (priority 2003, published 2005).

One experiment addresses T1, rat MCH1 receptor (Rattus norvegicus, UniProt P97639).
T1 construct: expressed in transfected cells
The experiment can be described thus: rMCH FLIPR calcium mobilization functional assay. The format is cell-based. The conditions noted are these: CHOK1-Gqi cells. On the procedure:
Pharmacological analyses were conducted using either a HT-PS100 device (Axiom Biotechnologies, San Diego, Calif.), which provides high-resolution dose-response fluorometric measurements of [Ca^++]i mobilization, or using a FLIPR® device (Molecular Devices, Sunnyvale, Calif.).
Materials: Pharmacological analysis was conducted using a FLIPR® device (Molecular Devices, Sunnyvale, Calif.). CHOK1-Gqi cells were stably transfected with the rat MCH1 receptor and maintained under G418 antibiotic pressure. FLIPR® assay buffer consisted of phenol red-free DMEM+2.5 mM probenecid. MCH peptide (Amgen, Inc.) was reconstituted in assay buffer and served as the positive agonist control for all experiments. Test compounds were prepared as 10 mM stocks in 100% DMSO and diluted to a top end working concentration of 10 μM in 96 well black, flat bottom, collagen-I coated plates (Becton Dickinson, Bedford, Mass.).
Methods: CHOK1-Gqi cells stably expressing MCH1R were maintained in Dulbeco's modified Eagle's medium (GIBCO/Life Technologies, Rockville, Md.) supplemented with 2 mM glutamine and 10% dialyzed fetal bovine serum (HyClone, Logan, Utah) at 37° C., 5% CO2. Cells were harvested by 10′ treatment with Versene (GIBCO/Life Technologies) followed by trituration, washing twice with cold (4° C.) hybridoma medium (Serum/Protein free, with L-glutamine, sodium bicarbonate, MOPS buffer) (Sigma-Aldrich Corp, St. Louis, Mo.) and replated onto 96 well black, flat bottom, collagen-I coated plates to a density of 10,000 cells/well. The cells were then loaded with the fluorescent calcium indicator Fura-2 (Molecular Probes, Eugene, Oreg.) at 1.6 μM for 60′ at room temperature. The loaded cells were then washed twice with 90 μl/well of wash buffer (1×HBSS, 20 mM HEPES, 2.5 mM probenecid).
Receptor-stimulated intracellular calcium responses were detected using FLIPR® by monitoring increases in the Fura-2 fluorescence response.
Test compounds were screened for MCH1R activity in the FLIPR® for both agonist and antagonist action. Agonist mode challenges were conducted at a maximum gradient concentration of 1 μM. Antagonist activity was tested by 10 min pre-incubation of cells at a compound concentration of defined to be 300× the EC50 of MCH (typically 1 μM), with subsequent introduction of MCH at a concentration 5-fold of EC50 as determined in preliminary experiments.
Schild experiments were conducted on the FLIPR® for selected compounds by co-administering antagonist compounds together with MCH peptide. Several fixed concentrations of antagonist compounds were prepared in 10-fold increments, and presented to the cells in a gradient of increasing MCH concentration. Values for compound pA2 were calculated by linear regression of MCH EC50s as a function of antagonist concentration.

In experiment [1] the target is T2, rat MCH 1 receptor (rMCH1R) (Rattus norvegicus, UniProt P97639).
T2 construct: expressed in transfected cells; host or cells: HEK 293 (membrane preparation)
The experiment can be described thus: Ligand binding assay (125I native-MCH), rMCH. The note with it: rMCH1R expressed in HEK 293, membranes, 0.2 nM 125I native-MCH. On the procedure: (§1) Human embryonic kidney cells (293 total) expressing either human, rat, or mouse MCH receptor were harvested from 150 mm culture dishes using PBS. Spinning at 1500 rpm for 2 minutes initially pelleted cells. The resulting pellet was then homogenized in 15 mL ice cold sucrose buffer (25 mM HEPES, 0.3 M sucrose, pH 7.4) with a motorized, glass fitted, Teflon® homogenizer. The homogenate was centrifuged at 48,000×g at 4° C. for 10 minutes, resuspended in 15 mL assay buffer (25 mM HEPES, 10 mM MgCl2, 0.2% BSA, 0.1 mg/mL STI, 0.1 mg/mL Pefabloc®, 1 μM Phosphoramidon, pH 7.4) with a Tissue-Tearor® (Biospec Products) and centrifuged again at 48,000×g for 10 minutes. The pellet was homogenized for a third time in 15 mL assay buffer using the Tissue-Tearor® and again centrifuged at 48,000×g for 10 minutes. The resulting pellet was resuspended in assay buffer at a wet weight concentration of 10-20 mg/mL.
(§2) Binding assays were determined as described below using mouse, rat or human MCH 1 receptors (mMCH1R, rMCH1R, and hMCH1R, respectively) expressed in HEK 293; IC50 values were calculated.
(§3) Binding assays were performed in 96-well U-bottom plates. Membranes (100 μg tissue) were incubated at 30° C. for 90 minutes in assay buffer with various peptides in the presence of 0.2 nM 125I native-MCH (Perkin-Elmer Life Sciences, Boston, Mass.) in 100 μL total volume. Non-specific binding was assessed in the presence of 1 μM cold native-MCH. The reaction was terminated by rapid filtration through Unfilter-96 GF/C glass fiber filter plates (FilterMate® 196 Harvester, Packard Instrument Co., Meriden, Conn.) pre-soaked in PBS/0.5% BSA, followed by three washes with 300 μL ice-cold water. Bound radioactivity was determined using a TopCount® microplate scintillation and luminescence counter (Packard Instrument Co., Meriden, Conn.). Nonlinear regression analyses of drug concentration curves were performed using GraphPad Prism® (GraphPad Software, Inc., San Diego, Calif.).

Experiment [2] deals with T3, human MCH 1 receptor (hMCH1R) (Homo sapiens, UniProt Q99705).
T3 construct: expressed in transfected cells; host or cells: HEK 293 (membrane preparation)
The experiment can be described thus: Ligand binding assay (125I native-MCH), hMCH. The conditions noted are these: hMCH1R expressed in HEK 293, membranes, 0.2 nM 125I native-MCH. On the procedure:
as §1, §2, §3

SMILES strings stand for the structures. Some results are limits rather than exact numbers.

T3 sequence (Q99705 whole entry): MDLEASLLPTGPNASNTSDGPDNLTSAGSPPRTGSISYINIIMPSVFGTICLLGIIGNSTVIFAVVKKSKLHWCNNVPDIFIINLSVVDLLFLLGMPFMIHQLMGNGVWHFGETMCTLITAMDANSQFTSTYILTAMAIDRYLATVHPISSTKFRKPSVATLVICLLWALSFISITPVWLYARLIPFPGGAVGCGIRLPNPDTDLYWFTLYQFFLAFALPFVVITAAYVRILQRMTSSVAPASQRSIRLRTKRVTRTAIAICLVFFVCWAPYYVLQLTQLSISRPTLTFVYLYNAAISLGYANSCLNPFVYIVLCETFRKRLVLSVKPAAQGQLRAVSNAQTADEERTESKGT
T1 sequence (P97639 whole entry): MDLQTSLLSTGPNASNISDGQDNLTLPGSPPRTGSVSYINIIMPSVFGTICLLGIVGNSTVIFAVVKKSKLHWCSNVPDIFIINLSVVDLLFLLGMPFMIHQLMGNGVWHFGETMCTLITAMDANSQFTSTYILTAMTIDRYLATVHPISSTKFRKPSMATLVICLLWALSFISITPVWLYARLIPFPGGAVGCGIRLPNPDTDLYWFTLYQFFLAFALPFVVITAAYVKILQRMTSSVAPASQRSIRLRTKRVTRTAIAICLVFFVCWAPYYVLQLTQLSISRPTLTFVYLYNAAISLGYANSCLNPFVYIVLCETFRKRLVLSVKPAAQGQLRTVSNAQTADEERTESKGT
T2 sequence (P97639 whole entry): as above

On to `Cc1ccc(Oc2ccc(C(=O)NCCN3CCCC3)cc2NC(=O)Nc2ccc(Cl)cc2Cl)cc1C` [Compound 31, 3-[3-(2,4-dichlorophenyl)ureido]-4-(3,4-dimethylphenoxy)-N-(2-pyrrolidin-1-yl-ethyl)benzamide], for which the Ki on rat MCH1 receptor (threshold 100 nM or less) is not above 0.1 µM; on rat MCH1 receptor (threshold 100 μM or less), not above 100 µM. The IC50 is not above 0.1 µM in experiment [1] (threshold 100 nM or less), not above 100 µM in experiment [1] (threshold 100 μM or less), not above 0.1 µM in experiment [2] (threshold 100 nM or less) and not above 100 µM in experiment [2] (threshold 100 μM or less).

For the compound `CCNC(=O)Nc1cc(C(=O)NCCN2CCCC2)ccc1Oc1ccc(C)c(C)c1` [Compound 18, 4-(3,4-dimethylphenoxy)-3-(3-ethylureido)-N-(2-pyrrolidin-1-yl-ethyl)benzamide], the IC50 in experiment [1] (threshold 100 μM or less) and in experiment [2] (threshold 100 μM or less) was not above 100 µM each time.

`O=C(Nc1cc(F)cc(F)c1)Nc1cc(C(=O)NCCN2CCCC2)ccc1Oc1ccc(Cl)c(Cl)c1` [Compound 66, 4-(3,4-dichlorophenoxy)-3-[3-(3,5-difluorophenyl)ureido]-N-(2-pyrrolidin-1-yl-ethyl)benzamide]: the IC50 is not above 0.1 µM in experiment [1] (threshold 100 nM or less), not above 100 µM in experiment [1] (threshold 100 μM or less), not above 0.1 µM in experiment [2] (threshold 100 nM or less) and not above 100 µM in experiment [2] (threshold 100 μM or less).

Regarding `Cc1ccc(Oc2ccc(C(=O)NCCN3CCCC3)cc2NC(=O)Cc2ccccc2)cc1C` [Compound 13, 4-(3,4-dimethylphenoxy)-3-phenylacetylarnino-N-(2-pyrrolidin-1-yl-ethyl)benzamide], the IC50 in experiment [1] (threshold 100 μM or less) and in experiment [2] (threshold 100 μM or less) was not above 100 µM in each case.

On to `Cc1ccc(Oc2ccc(C(=O)NCCN3CCCC3)cc2NC(=O)Nc2ccc(Oc3ccccc3)cc2)cc1C` [Compound 32, 4-(3,4-dimethylphenoxy)-3-[3-(4-phenoxyphenyl)ureido]-N-(2-pyrrolidin-1-yl-ethyl)benzamide], for which the Ki on rat MCH1 receptor (threshold 100 nM or less) is not above 0.1 µM; on rat MCH1 receptor (threshold 100 μM or less) it was not above 100 µM. Further, the results for the IC50 in experiment [1] (threshold 100 μM or less), in experiment [2] (threshold 100 nM or less) and in experiment [2] (threshold 100 μM or less) were not above 100 µM, not above 0.1 µM and not above 100 µM, respectively.

Consider `Cc1ccc(Oc2ccc(C(=O)NCCN3CCCC3)cc2NC(=O)Nc2ccc(-c3ccccc3)cc2)cc1C` [Compound 33], for which the Ki on rat MCH1 receptor (threshold 100 μM or less) is not above 100 µM. Besides, the IC50 is not above 100 µM in experiment [1] (threshold 100 μM or less), not above 0.1 µM in experiment [2] (threshold 100 nM or less) and not above 100 µM in experiment [2] (threshold 100 μM or less).

For the compound `COc1ccccc1NC(=O)Nc1cc(C(=O)NCCN2CCCC2)ccc1Oc1ccc(C)c(C)c1` [Compound 30, 4-(3,4-dimethylphenoxy)-3-[3-(2-methoxyphenyl)ureido]-N-(2-pyrroliidin-1-yl-ethyl)benzamide], the Ki at rat MCH1 receptor (threshold 100 μM or less) was not above 100 µM. For the same compound, the IC50 in experiment [1] (threshold 100 μM or less) and in experiment [2] (threshold 100 μM or less) was not above 100 µM throughout.

On to `Cc1ccc(Oc2ccc(C(=O)NCCN3CCCC3)cc2NC(=O)[C@@H]2C[C@H]2c2ccccc2)cc1C` (stereo in doubt) [Compound 16, 4-(3,4-dimethylphenoxy)-3-[(2-phenyl-cyclopropanecarbonyl)amino]-N-(2-pyrrolidin-1-yl-ethyl)benzamide], for which the IC50 in experiment [1] (threshold 100 μM or less) and in experiment [2] (threshold 100 μM or less) was not above 100 µM in each case.

In experiment [2] (threshold 100 μM or less), `Cc1ccc(Oc2ccc(C(=O)NCCN)cc2NC(=O)CCc2ccccc2)cc1C` [Compound 20, N-(2-aminoethyl)-4-(3,4-dimethylphenoxy)-3-(3-phenylpropionylamino)benzamide] registered an IC50 not above 100 µM.

On to `Cc1ccc(Oc2ccc(C(=O)NCCN3CCCC3)cc2NC(=O)/C=C/c2ccccc2)cc1C` [Compound 15, 4-(3,4-dimethylphenoxy)-3-(3-phenyl-acryloylamino)-N-(2-pyrrolidin-1-yl-ethyl)benzamide], for which the figures for the Ki on rat MCH1 receptor (threshold 100 nM or less) and at rat MCH1 receptor (threshold 100 μM or less) were not above 0.1 µM and not above 100 µM, respectively. Further, the IC50 in experiment [1] (threshold 100 μM or less) and in experiment [2] (threshold 100 μM or less) was not above 100 µM each time.

Turning to `Cc1ccc(Oc2ccc(C(=O)NCCN3CCCC3)cc2NC(=O)N(C)c2ccccc2)cc1C` [Compound 43, 4-(3,4-dimethylphenoxy)-3-(3-methyl-3-phenylureido)-N-(2-pyrrolidin-1-yl-ethyl)benzamide], the IC50 in experiment [1] (threshold 100 μM or less) and in experiment [2] (threshold 100 μM or less) was not above 100 µM throughout.

For the compound `Cc1ccc(Oc2ccc(C(=O)NCCN3CCCC3)cc2NC(=O)c2ccc3ccccc3c2)cc1C` [Compound 17, naphthalene-2-carboxylic acid [2-(3,4-dimethylphenoxy)-5-(2-pyrrolidin-1-yl-ethylcarbamoyl)phenyl]amide], the IC50 in experiment [1] (threshold 100 μM or less) and in experiment [2] (threshold 100 μM or less) was not above 100 µM each time.

Take `O=C(Nc1cccc(F)c1)Nc1cc(C(=O)NCCN2CCCC2)ccc1Oc1ccccc1` [Compound 61, 3-[3-(3-fluorophenyl)ureido]-4-phenoxy-N-(2-pyrrolidin-1-yl-ethyl)benzamide]: the results for the 50% inhibitory concentration (IC50) in experiment [1] (threshold 100 nM or less) and in experiment [1] (threshold 100 μM or less) were not above 0.1 µM and not above 100 µM, respectively.

`O=C(CCc1ccccc1)Nc1cc(C(=O)NCCN2CCCC2)ccc1Oc1ccc2ccccc2c1` [Compound 22]: the Ki at rat MCH1 receptor (threshold 100 μM or less) is not above 100 µM.

In turn, `O=C(NCCN1CCCC1)c1ccc(Oc2ccccc2)cc1` [Compound 8, 4-(phenyloxy)-N-(2-(1-pyrrolidinyl)ethyl)benzamide] registered an IC50 in experiment [2] (threshold 100 μM or less) not above 100 µM.

For the compound `CC(=O)Nc1cc(C(=O)NCCN2CCCC2)ccc1Oc1ccc(C)c(C)c1` [Compound 10, 3-acetylamino-4-(3,4-dimethylphenoxy)-N-(2-pyrrolidin-1-yl-ethyl)benzamide], the IC50 in experiment [1] (threshold 100 μM or less) and in experiment [2] (threshold 100 μM or less) was not above 100 µM each time.

Take `Cc1ccc(Oc2ccc(C(=O)NCCN3CCCC3)cc2NC(=O)Nc2cccc(F)c2)cc1C` [Compound 39, 4-(3,4-dimethylphenoxy)-3-[3-(3-fluorophenyl)ureido]-N-(2-pyrrolidin-1-yl-ethyl)benzamide]: the Ki on rat MCH1 receptor (threshold 100 nM or less) was not above 0.1 µM; on rat MCH1 receptor (threshold 100 μM or less) it was not above 100 µM. Moreover, the IC50 in experiment [1] (threshold 100 nM or less) is not above 0.1 µM; in experiment [1] (threshold 100 μM or less), not above 100 µM; in experiment [2] (threshold 100 nM or less) it was not above 0.1 µM; in experiment [2] (threshold 100 μM or less), not above 100 µM.

On to `Cc1ccc(Oc2ccc(C(=O)NCCN3CCCC3)cc2NC(=O)N(c2ccccc2)c2ccccc2)cc1C` [Compound 42, 4-(3,4-dimethylphenoxy)-3-(3,3-diphenylureido)-N-(2-pyrrolidin-1-yl-ethyl)benzamide], for which the IC50 in experiment [1] (threshold 100 μM or less) and in experiment [2] (threshold 100 μM or less) was not above 100 µM each time.

In the case of `Cc1ccc(Oc2ccc(C(=O)NCCN3CCCC3)cc2NC(=O)CCC2CCCC2)cc1C` [Compound 12, 3-(3-cyclopentylpropionylamino)-4-(3,4-dimethylphenoxy)-N-(2-pyrrolidin-1-yl-ethyl)benzamide], the IC50 in experiment [1] (threshold 100 μM or less) and in experiment [2] (threshold 100 μM or less) was not above 100 µM throughout.
